Assay results published in patent publication US9387206B2, “Therapeutic approaches for treating Alzheimer's disease” (PHARNEXT, priority 2009, dated 2016).

What was measured:
[1] = system: NGF-differentiated PC12 cells; experiment: MTT viability of NGF-differentiated PC12 after Aβ25-35 intoxication; format: cell-based, rat; conditions: Aβ25-35 10 μM, 24 hours, drug added 1 hour before
Method: PC12 (Pheochromocytoma Rat, ATCC ref: CRL-1721) cells from [NT] CRL-1721) were rapidly thawed in 37° C. water. The supernatant was immediately put in 9 ml of a PC12 proliferation medium containing Dulbecco's modified Eagle's medium DMEM-F12 (Pan Biotech ref: P04-41450) with 15% heat-inactivated horse serum (Invitrogen ref: 16050-130), 2.5% of fetal bovine serum (FBS; Invitrogen ref: 16000-036), 1% of Penicillin 10,000 U/ml and Streptomycin 10 mg/ml (PS; Pan Biotech ref: P06-07100) and 1% of L-glutamine 200 mM (Pan Biotech ref: P04-80100). Cells were centrifuged (800 rounds/min, 4° C. for 5 min) and added in 5 ml PC12 proliferation medium, viable cells were counted with a Malassez cell using the […] exclusion test (Sigma). Then the cells were seeded at 3.10^4 cells per cm^2 in PC12 proliferation medium in 75 cm^2 plastic flasks (Greiner Ref: 658175) precoated with poly-L-lysine (10 μg/ml, Sigma Ref: P2636). Medium was changed every other day. After 3 days of culture, when cells reached 80% of confluence, they were washed in HBSS without calcium and magnesium (Pan Biotech Ref: […] P10-023100). The enzymatic reaction was stopped with PC12 proliferation medium added by 0.5 mg/ml of DNAse 1 grade 2 (Pan Biotech Ref: 760-37780100). […]

[2] = system: rat primary cortical neurons; experiment: Neurite outgrowth in beta-amyloid (Aβ25-35) intoxicated rat primary cortical neuron culture; format: cell-based; conditions: Aβ25-35 20 μM, 2 days; drug added 1 hour before
[3] = system: rat primary cortical neurons; experiment: LDH release in Aβ25-35 intoxicated rat primary cortical neuron culture; format: cell-based; conditions: Aβ25-35 20 μM, 2 days; drug added 1 hour before
Method: Primary rat cortical neurons are cultured as described by Singer et al., 1999. Briefly pregnant female rats of 15 days gestation are killed by cervical dislocation (Rats Wistar; Janvier) and the foetuses removed from the uterus. The cortexes are removed and placed in ice-cold medium of Leibovitz (L15; Invitrogen) containing 1% of Penicillin-Streptomycin (PS; Invitrogen) and 1% of bovine serum albumin (BSA; Sigma). Cortexes are dissociated by trypsinisation for 20 min at 37° C. (Trypsin EDTA 1×; Invitrogen) diluted in PBS without calcium and magnesium. The reaction is stopped by the addition of Dulbecco's modified Eagle's medium (DMEM; Invitrogen) containing DNAase I grade II (0.1 mg/ml; Roche Diagnostics) and 10% of foetal calf serum (FCS; Invitrogen). Cells are then mechanically dissociated by 3 passages through a 10 ml pipette. Cells are then centrifuged at 180×g for 10 min at 10° C. […] Viable cells are counted in a Neubauer cytometer using the trypan blue exclusion test. Cells are seeded at a density of 30,00-cells/well in 96-well plates (wells are pre-coated with poly-L-lysine (10 μg/ml; […] After 6 days of culture, cells are incubated with drugs (5 concentrations). After 1 hour, cells are intoxicated by 20 μM of β-amyloid (25-35; Sigma) in defined medium without BDNF but together with drugs. Cortical neurons are intoxicated for 2 days. After 2 days of culture, the supernatant is collected and analyzed with the Cytotoxicity Detection Kit (LDH, Roche Applied Sciences). This colorimetric assay for the quantification of cell death is based on the measurement of lactate dehydrogenase (LDH) activity released from the cytosol of damaged cells into the supernatant. The optic density (DO) is assessed by spectrophotometer at 492 nm wavelength by a multiscan apparatus (Thermo, Ref Ascent). […] Two days after this incubation, LDH release in the culture medium is quantified, reflecting the level of cell death.

[4] = system: rat primary cortical neurons; experiment: LDH release, human Aβ1-42 toxicity on rat primary cortical cells; format: cell-based; conditions: 0.32 nM alone; Aβ1-42 2.5 μM
Method: Primary rat cortical neurons are cultured as described previously.
Briefly, Aβ1-42 peptide was reconstituted in defined culture medium at 40 μM (mother solution) and was slowly shacked at +37° C. for 3 days in the dark for aggregation. The control medium was prepared in the same conditions.
After 10 days of neuron culture, the drug was solved in culture medium (+0.1% DMSO) and then pre-incubated with neurons for 1 hour before the Aβ1-42 application (in a final volume per culture well of 100 μl). […] Cortical neurons were intoxicated for 24 hours. Three separate cultures were performed per condition, 6 wells per condition.
Estradiol-β at 100 and 150 nM were used as a reference test compound and BDNF at 50 ng/ml was used as a positive control. Three separate cultures were performed per condition, […].
Estradiol-β and BDNF were solved in culture medium and pre-incubated for 1 h before the aggregated amyloid-β1-42 application.
Lactate Dehydrogenase (LDH) Activity Assay
This colorimetric assay for the quantification of cell toxicity is based on the measurement of lactate dehydrogenase (LDH) activity released from the cytosol of dying cells into the supernatant.
All values are expressed as mean±s.e.mean of the 3 cultures (n=6 per condition). Statistical analyses were done on the different conditions (ANOVA followed by the Dunnett's test when it was allowed, Statview software version 5.0).

Compound: CCCNC(C)C(=O)Nc1ccccc1C (stereo not drawn) [Prilocain, Prilocaine]
- Prevention of Aβ25-35 intoxication, cell viability (MTT) [1]: significantly prevented
- Prevention of Aβ25-35 intoxication, cell viability (MTT) ([1]; listed as prilocaine): strong neuroprotective effect

Compound: NS(=O)(=O)Cc1noc2ccccc12 [Zonisamide]
- Prevention of Aβ25-35 intoxication, neurite outgrowth (neurite length) [2]: significantly prevented
- Prevention of Aβ25-35 intoxication, LDH release [3]: significantly prevented

Compound: CC(=O)NCCCS(=O)(=O)O [Acamprosate]
- Effect on Aβ1-42 intoxication, LDH release, drug alone [4]: no significant effect
- Prevention of Aβ25-35 intoxication, neurite outgrowth (neurite length) [2]: significantly prevented
